In patent US20080279961A1, “TELOMERE TARGETING AGENTS AS STEM CELLS DIRECTED TREATMENTS” (priority 2007, published 2008):
Entries after “also recorded” stand apart in the source; their conditions may differ.

Key:
R1 prostate cancer cells = experiment: side population analysis; format: cell-based
Description: In one embodiment of the invention, cancer stem cells have shorter telomeres than other cancer cells (FIG. 7). Side population analysis was done to distinguish between cancer stem cells in R1 prostate cancer cells and […]. A primitive CD34^low/neg stem cell population has been defined in normal bone marrow, which has the unique capacity to efflux lipophilic dyes such as Hoechst 33342 as a result of high levels of expression of P-glycoprotein (MDRa/ABCB1) transporter and BCRP (breast cancer resistance protein, ABCG2). […] R1 is the parental prostate cancer cell line with a SP of 0.36% of cells of the total population (100%). […] Subclones of the R1 chemosensitive prostate cancer cell line that are resistant to the clinically used cytotoxic agents mitoxantrone and docetaxel, show a much expanded SP of 45% and 83% of cells respectively. In fact docetaxel resistant R1 cells are almost all stem cell like cells.

[1] = tolerability in xenograft studies (body weight, deaths, MTD)
Description: For the first in vivo experiment, tumor fragments (5×5 mm) from untreated donor animals were implanted subcutaneously into both flanks of recipient mice. Treatment was initiated 6 days after transplantation (=day 0, median tumor volume of ˜70 mm^3). Animals were randomized into groups following Lindner's randomization tables and treated by oral gavage with 5 mg/kg/d RHPS4 or vehicle (phosphate buffered saline) respectively (n=5-8 animals per group). […] Drug administration was repeated twice weekly for 8 times (Q3dx8) after randomization. Tumor growth was followed twice weekly by serial caliper measurement, body weights were recorded, and tumor volumes were calculated using the standard formula (length×width^2)/2, where length is the largest dimension and width the smallest dimension perpendicular to the length (Alley et al., 2004; Geran et al., 1972). The median relative tumor volume was plotted against time. Relative tumor volumes were calculated for each single tumor by dividing the tumor volume on day X by that on day 0 (time of randomization). Growth curves were analyzed in terms of tumor inhibition (treated/control, T/C, calculated as median tumor weight of treated divided by median tumor weight of control animals times 100). Statistical data analysis was done using non-parametrical Wilcoxon Mann-Whitney statistics. Median relative tumor volumes of each treatment group were compared with those of the vehicle control groups. P values less than 0.05 were considered statistically significant. SPSS 2000, SYSTAT version 10 software was used.
To conduct combination treatment with Paclitaxel, after 4 serial propagations of RHPS4 treated tumor tissue in nude mice (FIG. 1), RHPS4 was combined with Paclitaxel. Single agent Paclitaxel was given at 20 mg/kg i.v. on days 1 and 15. In combination with RHPS4 (given at 5 mg/kg p.o. twice weekly), only a single dose of Paclitaxel (20 mg/kg i.v.) was administered on day 1. Tumor growth parameters and body weight were assessed as described above.

UXF1138L xenografts [2] = experiment: tumor growth inhibition of subcutaneous xenografts; format: in vivo, nude mice
UXF1138L xenografts [3] = conditions: mouse, in vivo; cited from earlier work

Structure (SMILES): COc1ccc2c3c([nH]c2c1)[C@H](CC(C)C)N1C(=O)[C@H](CCC(=O)OC(C)(C)C)NC(=O)[C@@H]1C3 [Ko143]
- effect on side population (SP) (R1 prostate cancer cells): abolishes the SP

Structure (SMILES): CC(=O)O[C@H]1C(=O)[C@@]2(C)[C@H]([C@H](OC(=O)c3ccccc3)[C@]3(O)C[C@H](OC(=O)[C@H](O)[C@@H](NC(=O)c4ccccc4)c4ccccc4)C(C)=C1C3(C)C)[C@]1(OC(C)=O)CO[C@@H]1C[C@@H]2O [Paclitaxel, reference compound]
- Deaths [n/n], drug related death per mice per group ([1]; Passage #4): 0/6
- BWC, maximal median body weight change ([1]; mouse, in vivo): +6%
- opt. Test/Control [%] (UXF1138L xenografts [2]; Passage #4, RHPS4 5 mg/kg p.o. twice weekly, Paclitaxel 20 mg/kg i.v.): 8%
- CR, complete remission (UXF1138L xenografts [2]; Passage #4, tumors per group): 2/12
- P, progression (UXF1138L xenografts [2]; Passage #4, tumors per group): 3/12
- PR, partial regression (UXF1138L xenografts [2]; Passage #4, tumors per group): 7/12
- antitumor response in words (UXF1138L xenografts [2]; Passage #4 UXF1138L xenografts): has single agent activity; also recorded: transient remissions; also recorded: Minor remissions

Structure (SMILES): COc1cccc2c1C(=O)c1c(O)c3c(c(O)c1C2=O)C[C@@](O)(C(=O)CO)C[C@@H]3O[C@H]1C[C@H](N)[C@H](O)[C@H](C)O1 [doxorubicin]
- response of UXF1138L xenograft to standard chemotherapy (UXF1138L xenografts [3]): resistant

Structure (SMILES): O=C1c2c(O)ccc(O)c2C(=O)c2c(NCCNCCO)ccc(NCCNCCO)c21 [mitoxantrone]
- response of UXF1138L xenograft to standard chemotherapy (UXF1138L xenografts [3]): resistant
